Test results taken from patent publication US11001561B2, “Pyrimidinone derivatives as SHP2 antagonists” (MERCK PATENT GMBH, priority 2019, dated 2021).
Where two headings read alike, the source gives them in different places. One block for each molecule: values may come before it.

Tests used:
[1] = molecular target: Full length SHP2 protein (Recombinant Human SHP-2) (Homo sapiens (Human), UniProt Q06124); assay: SHP2 biochemical assay (DiFMUP substrate, activating peptide IRSI_2pY)
Method: The inhibition of SHP2 by compounds of the invention was monitored using the surrogate substrate DiFMUP after protein activation by a peptide bearing two appropriately spaced phosphotyrosine. […] The generation of the DiFMU product by activated SHP2 was monitored through Fluorescence measurement with a PerkinElmer Envision reader. The inhibitor dose response curves were analyzed with Genedata Screener.

[2] = Pharmacokinetics in mouse (oral / intravenous); assay type: in vivo; conditions: female CD1 mice; for clearance / Vd: mouse; for Vd: read-out: Vd ss
Method: Female CD1 mice (N=3) received a single oral (gavage) or a single intravenous (bolus) injection of compound. […] Consecutive blood samples were taken sub-lingually under isofluorane inhalation from animals after 0.083 (IV), 0.25, 0.5, 1, 2, 4, 6 and 24 h and were further processed to obtain plasma. Samples were protein precipitated and analysed by LC/MS/MS.

[3] = molecular target: auto-activated mutant protein SHP2 E76K (Homo sapiens (Human), UniProt Q06124, E76K); assay: SHP2 active mutant E76K biochemical assay with and without activating peptide
Chain of auto-activated mutant protein SHP2 E76K (Q06124 whole entry E76K): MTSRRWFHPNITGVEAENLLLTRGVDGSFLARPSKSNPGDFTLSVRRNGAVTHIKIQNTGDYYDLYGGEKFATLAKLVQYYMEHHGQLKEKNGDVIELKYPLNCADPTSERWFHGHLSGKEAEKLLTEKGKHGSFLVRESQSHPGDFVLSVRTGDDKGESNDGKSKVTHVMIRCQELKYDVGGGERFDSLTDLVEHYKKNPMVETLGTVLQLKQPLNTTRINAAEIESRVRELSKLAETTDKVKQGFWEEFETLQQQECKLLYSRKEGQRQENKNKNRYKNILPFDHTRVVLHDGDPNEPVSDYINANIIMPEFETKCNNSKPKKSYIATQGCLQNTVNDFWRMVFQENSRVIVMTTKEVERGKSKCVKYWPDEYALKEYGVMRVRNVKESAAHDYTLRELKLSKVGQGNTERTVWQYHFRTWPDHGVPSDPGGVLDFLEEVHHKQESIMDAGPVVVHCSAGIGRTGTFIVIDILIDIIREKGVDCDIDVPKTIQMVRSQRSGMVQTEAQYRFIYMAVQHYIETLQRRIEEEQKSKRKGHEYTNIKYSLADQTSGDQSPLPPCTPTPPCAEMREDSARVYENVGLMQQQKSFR
Method: The inhibition of SHP2 by compounds of the invention was monitored using the surrogate substrate DiFMUP after protein activation by a peptide bearing two appropriately spaced phosphotyrosine. Full length SHP2 protein (Recombinant HumanSHP-2, E. coli derived Ser2Arg593, N-terminal 6His tag from R&D systems; 0.0.24 nM) was incubated with activating peptide, IRSI_2pY (New England Peptide, 140 nM) and DiFMUP (molecular probes, 80 uM) at RT in buffer (HEPES pH 7.2 60 mM, DDT 5 mM, KCl 75 mM, NaCl 75 mM, EDTA 1 mM, Tween 20 0.05%) in presence of compound (10 concentrations range, top concentration 50 μM) for 60 min. The generation of the DiFMU product by activated SHP2 was monitored through Fluorescence measurement with a PerkinElmer Envision reader. The inhibitor dose response curves were analyzed with Genedata Screener.

pERK1/2 in KYSE520 cells = assay: p-Erk cellular assay in KYSE520 (Mesoscale); assay type: cell-based; conditions: read-out: pERK1/2 in Cell KYSE520 IC50
Method: p-Erk Cellular Assay in KYSE520: The effect of SHP2 inhibitors on pERK level was assessed using phospho-specific antibody using Mesoscale quantification platform. For measuring change in pERK levels using mesoscale, 30,000 cells of KYSE520 cells were plated in 96-well tissue culture treated plate in 175 μl volume of media. After an overnight incubation at 37° C., various SHP2 inhibitors were added in different concentration to each well maintaining duplicate wells across plates and incubated with compounds for 2 h at 37° C. followed by a wash with ice cold PBS buffer. The cells were then lysed in lysis buffer and processed and analyzed for p-ERK/ERK as per manufacturer's instructions (Mesoscale discovery, cat No. […]-3).

[4] = molecular target: Kv11.1 (hERG) ion channel (Homo sapiens (Human), UniProt Q12809); assay: hERG patch clamp in Kv11.1 transfected HEK293 cells; assay type: cell-based
Chain of Kv11.1 (hERG) ion channel (Q12809 whole entry): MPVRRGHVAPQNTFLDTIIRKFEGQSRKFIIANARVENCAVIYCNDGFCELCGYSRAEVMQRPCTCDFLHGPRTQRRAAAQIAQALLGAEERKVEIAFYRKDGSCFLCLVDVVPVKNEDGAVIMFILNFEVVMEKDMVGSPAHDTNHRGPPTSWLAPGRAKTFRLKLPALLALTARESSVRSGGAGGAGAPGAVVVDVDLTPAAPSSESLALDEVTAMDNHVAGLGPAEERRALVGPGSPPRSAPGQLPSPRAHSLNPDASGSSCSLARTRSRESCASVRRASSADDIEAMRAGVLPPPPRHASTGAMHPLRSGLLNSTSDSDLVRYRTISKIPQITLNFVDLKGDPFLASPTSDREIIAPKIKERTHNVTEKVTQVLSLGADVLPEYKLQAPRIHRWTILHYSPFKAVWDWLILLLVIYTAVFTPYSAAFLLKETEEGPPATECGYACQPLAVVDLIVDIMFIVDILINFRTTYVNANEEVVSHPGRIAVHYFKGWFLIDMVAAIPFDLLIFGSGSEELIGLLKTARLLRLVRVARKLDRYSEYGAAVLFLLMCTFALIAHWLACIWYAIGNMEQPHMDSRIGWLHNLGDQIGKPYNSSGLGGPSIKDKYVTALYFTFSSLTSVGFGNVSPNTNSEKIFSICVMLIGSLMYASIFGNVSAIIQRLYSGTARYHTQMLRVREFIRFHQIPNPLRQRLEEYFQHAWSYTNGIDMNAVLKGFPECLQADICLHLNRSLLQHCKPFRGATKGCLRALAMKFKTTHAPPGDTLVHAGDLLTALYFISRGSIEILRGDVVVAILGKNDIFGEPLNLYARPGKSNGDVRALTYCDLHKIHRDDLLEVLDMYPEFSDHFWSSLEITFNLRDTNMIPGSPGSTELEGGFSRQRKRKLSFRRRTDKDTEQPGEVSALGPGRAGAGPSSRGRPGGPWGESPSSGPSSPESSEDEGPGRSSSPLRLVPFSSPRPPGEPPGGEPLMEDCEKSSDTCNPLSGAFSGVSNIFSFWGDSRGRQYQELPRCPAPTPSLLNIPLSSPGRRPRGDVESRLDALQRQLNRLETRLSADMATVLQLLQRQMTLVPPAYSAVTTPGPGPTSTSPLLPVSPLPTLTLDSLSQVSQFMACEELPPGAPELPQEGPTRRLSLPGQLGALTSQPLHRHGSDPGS
Method: Inhibition of the ion channel hErg (or Kv11.1) current causes QT interval prolongation resulting in potentially fatal ventricular tachyarrhythmia called Torsade de Pointes.
hERG ion channel activity was assessed using a patch clamp technique in stable Kv11.1 (hERG) transfected human embryonic kidney cell line (HEK293). Whole cell recordings were carried out with an automated patch clamp device Patchliner™ from Nanion Technologies, Munich following manufacturer recommendation. Different concentrations of the test compound or reference, quinidine, were applied to whole cells suspension and current was measured using a pulse pattern with fixed amplitudes.

Kyse-520 xenografts = assay: Kyse-520 xenograft (EGFR amplified esophageal cancer); conditions: H2D Rag2 mice, 0.8, 2.5 or 8 mg/kg daily oral gavage
Source text: H2D Rag2 mice were inoculated with 5 million KYSE-520 cells mixed with matrigel.
In vivo efficacy of compound 74a in an EGFR amplified setting was investigated in Kyse-520 xenografts. H2D Rag2 mice were inoculated with 5 million KYSE-520 cells mixed with matrigel.

[5] = molecular target: Recombinant human SHP2 protein (2-593) (Homo sapiens (Human), UniProt Q06124); assay: SPR binding assay; conditions: SPR, 25° C.
Chain of Recombinant human SHP2 protein (2-593) (Q06124 2-593): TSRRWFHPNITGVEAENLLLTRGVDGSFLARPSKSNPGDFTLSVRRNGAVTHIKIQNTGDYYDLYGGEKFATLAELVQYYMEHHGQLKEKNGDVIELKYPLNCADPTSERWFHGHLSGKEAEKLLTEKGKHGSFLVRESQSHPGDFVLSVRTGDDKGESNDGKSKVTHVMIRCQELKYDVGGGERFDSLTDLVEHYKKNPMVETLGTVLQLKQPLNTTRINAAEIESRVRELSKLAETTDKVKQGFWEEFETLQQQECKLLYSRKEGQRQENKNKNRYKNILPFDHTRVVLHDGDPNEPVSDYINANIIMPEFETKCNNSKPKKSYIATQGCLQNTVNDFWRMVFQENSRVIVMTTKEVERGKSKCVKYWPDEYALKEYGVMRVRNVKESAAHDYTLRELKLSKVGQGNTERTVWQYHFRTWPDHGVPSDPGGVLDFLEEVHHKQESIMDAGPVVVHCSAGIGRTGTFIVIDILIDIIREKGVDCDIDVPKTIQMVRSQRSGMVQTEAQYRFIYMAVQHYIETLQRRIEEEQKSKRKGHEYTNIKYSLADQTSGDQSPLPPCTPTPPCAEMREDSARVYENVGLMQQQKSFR
Method: The immobilization buffer contained 20 mM HEPES/NaOH (pH 7.4), 150 mM NaCl, 0.05% Tween 20. Inhibitors (stored as 10 mM stock solutions in 100% DMSO) were diluted in running buffer (20 mM HEPES/NaOH pH 7.4, 150 mM NaCl, 1 mM DTT, 5 mM MgCl2 0.1 mM EGTA, 0.05% Tween 20, 2% DMSO @25° C.) and analysed with a Biacore 4000 (Biacore AB, GE Healthcare Life Sciences, Uppsala, Sweden) using a 2-fold dilution series. The highest compound concentration varied according to the expected dissociation constant, but all compounds were tested at 10 different concentrations. Interaction analysis cycles were run at 30 μL/min and consisted of a 140 s sample injection followed by 600 s of buffer flow (dissociation phase). All sensograms were evaluated by first subtracting the binding response recorded from the control surface (reference spot), followed by subtracting a buffer blank injection. To determine kinetic rate constants, data sets were fitted to a simple 1:1 interaction model including a term for mass transport using numerical integration and nonlinear curve fitting. Equilibrium analysis was performed by fitting the response at the end of the association phase to a single-site binding isotherm.

[6] = tested on: MCP-1 production in U937 cells; assay: Cytokine release assay in U937 cells (MCP-1 AlphaLISA, IL-6 stimulation); assay type: cell-based; conditions: Homo sapiens, U-937; U937 cells stimulated with IL-6 (50 ng/mL) overnight
Method: Selected compounds were tested in a cytokine release assay in monocytic cells (U937) to test their anti-inflammatory properties. Cells were plated in a 96-well cell culture plate using serum-free media. The cells were treated with indicated concentrations of SHP-2 inhibitors for 30 minutes followed by overnight stimulation with recombinant IL-6 (50 ng/mL). The MCP-1 production was measured in the culture supernatant using a MCP-1 AlphaLISA kit (Perkin Elmer).

[7] = SHP-2 IC50 (nM) peptide, wild-type SHP-2, with activating peptide
[8] = activating peptide IRSI_2pY 140 nM, DiFMUP, 60 min, read-out: SHP-2 biochemical assay IC50
[9] = SHP-2 E76Z IC50 (nM) No peptide, without activating peptide
[10] = SHP-2 E76Z IC50 (nM) peptide, with activating peptide IRSI_2pY 140 nM
[11] = SHP-2 biochemical assay IC50 (μM), activating peptide IRSI_2pY 140 nM, DiFMUP, 60 min
[12] = with activating peptide IRSI_2pY 140 nM, read-out: SHP-2 E76Z IC50 (nM) peptide
[13] = without activating peptide, read-out: SHP-2 E76Z IC50 (nM) No peptide

Chain of Full length SHP2 protein (Recombinant Human SHP-2) (Q06124 2-593): as above

Compound: Cc1c(N2CCC3(CC2)Oc2ccccc2[C@H]3N)nc(C)n(-c2cccc(Cl)c2Cl)c1=O (single isomer, unassigned) [Compound 81b]
IC50 [1, 7]: 0.3 nM
IC50 [1, 8]: 1.4 nM
Fz [2]: 48%
clearance ([2]; plasma, intravenous): 2.5 mL/min/kg
Vd ([2]; plasma, intravenous): 0.68 L/kg
IC50 [3, 9]: 0.5 nM
IC50 [3, 10]: 1.1 nM
IC50 (pERK1/2 in KYSE520 cells; Homo sapiens, KYSE-520, 2 h): 6.6 nM

Compound: [2H]C([2H])([2H])c1c(N2CCC3(CC2)Cc2ccccc2[C@H]3N)nc(C)n(-c2cccc(Cl)c2Cl)c1=O [Compound 106, 6-[(1S)-1-amino-1,3-dihydrospiro[indene-2,4′-piperidin]-1′-yl]-3-(2,3-dichlorophenyl)-5-(2H3)methyl-2-methyl-3,4-dihydropyrimidin-4-one]
IC50 [1, 7]: 1.7 nM
IC50 [1, 11]: 6 nM
IC50 [3, 12]: 6.4 nM
IC50 [3, 13]: 3.5 nM
IC50 (pERK1/2 in KYSE520 cells; Homo sapiens, KYSE-520, 2 h): 10 nM

Compound: Cc1c(N2CCC3(CC2)Cc2ncccc2[C@H]3N)nc(C)n(-c2cccc(Cl)c2Cl)c1=O (single isomer, unassigned) [Compound 66a]
IC50 [1, 7]: 48 nM
IC50 [1, 8]: 73 nM
IC50 [3, 12]: 200 nM
IC50 [3, 13]: 97 nM

Compound: Cc1c(N2CCC3(CC2)Cc2ncccc2[C@H]3N)nc(C)n(-c2cccc(Cl)c2Cl)c1=O (single isomer, unassigned) [Compound 66b]
Ki [4]: 7500 nM
Split between hErg and cell activity Ki (patch Clamp)/IC50 (KYSE) ([4]; human): 580
IC50 [1, 7]: 0.7 nM
IC50 [1, 11]: 1 nM
Fz [2]: 100%
clearance ([2]; plasma, intravenous): 8.33 mL/min/kg
Vd ([2]; plasma, intravenous): 1.96 L/kg
IC50 [3, 9]: 1.9 nM
IC50 [3, 10]: 1.9 nM
IC50 (pERK1/2 in KYSE520 cells; Homo sapiens, KYSE-520, 2 h): 5 nM

Compound: Cc1nc(N2CCC3(CC2)CO[C@@H](C)[C@H]3N)c(CO)nc1-c1cccc(Cl)c1Cl [RMC-4550, reference compound]
Ki [4]: 600 nM
Fz [2]: 86%
Vd ([2]; in vivo): 6.1 L/kg
clearance ([2]; plasma, intravenous): 20 mL/min/kg

Compound: Cc1c(N2CCC3(CC2)Cc2ccccc2[C@H]3N)nc(C)n(-c2cccc(Cl)c2Cl)c1=O [Compound 74a, (3M)-6-[(1S)-1-amino-1,3-dihydrospiro[indene-2,4′-piperidin]-1′-yl]-3-(2,3-dichlorophenyl)-2,5-dimethyl-3,4-dihydropyrimidin-4-one]
tolerability (Kyse-520 xenografts): All doses were well tolerated
Ki [4]: 1200 nM
Split between hErg and cell activity Ki (patch Clamp)/IC50 (KYSE) [4]: 704
Fz [2]: 100%
clearance ([2]; plasma, intravenous): 8.33 mL/min/kg
Vd ([2]; plasma, intravenous): 5.1 L/kg
koff [5]: < 0.0001 s⁻¹
residence time [5]: > 160 min
IC50 (pERK1/2 in KYSE520 cells; 2 h): 2 nM

Compound: Cc1c(N2CCC3(CC2)C[C@@H](C)C[C@H]3N)nc(C)n(-c2cccc(Cl)c2Cl)c1=O [Compound 77, (3M)-6-[(1R,3R)-1-amino-3-methyl-8-azaspiro[4.5]decan-8-yl]-3-(2,3-dichlorophenyl)-2,5-dimethyl-3,4-dihydropyrimidin-4-one]
IC50 [6]: 731 nM
IC50 [1, 11]: 6 nM
IC50 (pERK1/2 in KYSE520 cells; Homo sapiens, KYSE-520, 2 h): 74 nM

Compound: Cc1c(N2CCC3(CC2)Oc2cnccc2[C@@H]3N)nc(C)n(-c2cccc(Cl)c2Cl)c1=O (single isomer, unassigned) [Compound 80b]
IC50 [1, 11]: > 10000 nM
IC50 (pERK1/2 in KYSE520 cells; 2 h): 16000 nM

Compound: Cc1nc(N2CCC3(CC2)CO[C@@H](C)[C@H]3N)nc(=O)n1-c1cccc(Cl)c1Cl (single isomer, unassigned) [Compound 37a]
IC50 [1, 8]: 1100 nM
IC50 (pERK1/2 in KYSE520 cells; Homo sapiens, KYSE-520, 2 h): 11300 nM

Now from value to molecule, other results behind:

IC50 [1, 8]: 15 nM
IC50 (pERK1/2 in KYSE520 cells; Homo sapiens, KYSE-520, 2 h): 6 nM
Compound: Cc1c(N2CCC3(CC2)Cc2ccccc2[C@H]3N)nc(N)n(-c2cccc(Cl)c2Cl)c1=O [Compound 117, 2-amino-6-[(3S)-3-amino-1,3-dihydrospiro[indene-2,4′-piperidin]-1′-yl]-3-(2,3-dichlorophenyl)-5-methyl-3,4-dihydropyrimidin-4-one]
Ki [4]: 2500 nM
Split between hErg and cell activity Ki (patch Clamp)/IC50 (KYSE) ([4]; human): 417

clearance ([2]; in vivo): 95 mL/min/kg
Vd ([2]; in vivo): 5 L/kg
Compound: CC1(N)CCN(c2cnc(-c3cccc(Cl)c3Cl)c(N)n2)CC1 [SHP-099, reference compound]

Fz [2]: 85%
clearance ([2]; plasma, intravenous): 8 mL/min/kg
Vd ([2]; plasma, intravenous): 2.77 L/kg
Compound: Cc1nc(N2CCC3(CC2)CO[C@@H](C)[C@H]3N)cc(=O)n1-c1cccc(Cl)c1Cl (single isomer, unassigned) [Compound 3b]

IC50 [1, 8]: 200 nM
IC50 (pERK1/2 in KYSE520 cells; Homo sapiens, KYSE-520, 2 h): 2190 nM
Compound: Cc1c(N2CCC3(CC2)CO[C@@H](C)[C@H]3N)nc(N)n(-c2cccc(Cl)c2Cl)c1=O [Compound 116, 2-Amino-6-((3S,4S)-4-amino-3-methyl-2-oxa-8-aza-spiro[4.5]dec-8-yl)-3-(2,3-dichloro-phenyl)-5-methyl-3H-pyrimidin-4-one]

IC50 [1, 8]: 5 nM
IC50 (pERK1/2 in KYSE520 cells; Homo sapiens, KYSE-520, 2 h): 26 nM
Compound: Cc1c(N2CCC3(CC2)Cc2ccccc2[C@H]3N)nc(C)n(-c2cccc(Br)c2Cl)c1=O [Compound 104, 6-[(1S)-1-amino-1,3-dihydrospiro[indene-2,4′-piperidin]-1′-yl]-3-(3-bromo-2-chlorophenyl)-2,5-dimethyl-3,4-dihydropyrimidin-4-one]

IC50 [1, 8]: 370 nM
IC50 (pERK1/2 in KYSE520 cells; Homo sapiens, KYSE-520, 2 h): 1320 nM
Compound: Cc1c(N2CCC(C)(CN)CC2)nc(C)n(-c2cccc(Cl)c2Cl)c1=O [Compound 18, 6-[4-(aminomethyl)-4-methylpiperidin-1-yl]-3-(2,3-dichlorophenyl)-2,5-dimethyl-3,4-dihydropyrimidin-4-one]

IC50 [1, 8]: 150 nM
IC50 (pERK1/2 in KYSE520 cells; Homo sapiens, KYSE-520, 2 h): 2000 nM
Compound: Cc1c(N2CCC3(CC2)CO[C@@H](C)[C@H]3N)nc(C)n(-c2cccc(F)c2Cl)c1=O [Compound 96, 6-((3S,4S)-4-Amino-3-methyl-2-oxa-8-aza-spiro[4.5]dec-8-yl)-3-(2-chloro-3-fluoro-phenyl)-2,5-dimethyl-3H-pyrimidin-4-one]

IC50 [1, 8]: 16 nM
IC50 (pERK1/2 in KYSE520 cells; Homo sapiens, KYSE-520, 2 h): 51 nM
Compound: Nc1nc(N2CCC3(CC2)Cc2ccccc2[C@H]3N)cc(=O)n1-c1cccc(Cl)c1Cl [Compound 118, 2-amino-6-[(3S)-3-amino-1,3-dihydrospiro[indene-2,4′-piperidin]-1′-yl]-3-(2,3-dichlorophenyl)-3,4-dihydropyrimidin-4-one]

IC50 [1, 8]: 6 nM
IC50 (pERK1/2 in KYSE520 cells; Homo sapiens, KYSE-520, 2 h): 10 nM
Compound: COc1c(F)ccc(-n2c(C)nc(N3CCC4(CC3)Cc3ccccc3[C@H]4N)c(C)c2=O)c1F [Compound 105, 6-[(1S)-1-amino-1,3-dihydrospiro[indene-2,4′-piperidin]-1′-yl]-3-(2,4-difluoro-3-methoxyphenyl)-2,5-dimethyl-3,4-dihydropyrimidin-4-one]
